This note sets out measurements from ChEMBL document CHEMBL1132749, “Synthesis and antiproliferative evaluation of 7-aminosubstituted pyrroloiminoquinone derivatives” (Bioorg Med Chem Lett, 2000).

For assay [1], the system named is L1210. Description: Effect of compound on cellular cycle of L1210 leukemia cell; non specific. The assay is classed as functional, cell-based. The following applies: Mus musculus.
For assay [2], the system named is L1210. The experiment in a line: The compound was evaluated in vitro for its antiproliferative activity against the murine L1210 leukemia cell. The assay is classed as functional, cell-based. The following applies: Mus musculus.

Regarding `CN(C)CCNC1=CC2=NCCc3c[nH]c(c32)C1=O`, the Effect result in assay [1] is on record as “non specific”. The molecule further yielded an IC50 in assay [2] of 300 nM.

For the molecule `O=C1C(NCCc2ccc(O)cc2)=CC2=NCCc3c[nH]c1c32`, the Effect entry in assay [1] was “non specific”. The molecule further had an IC50 in assay [2] of 2100 nM.

Regarding `O=C1C(NCCc2c[nH]c3ccccc23)=CC2=NCCc3c[nH]c1c32`, the Effect result in assay [1] is recorded as “non specific”. It took 5300 nM to reach half-maximal inhibition in assay [2] (IC50).

Consider `O=C1C(NCCN2CCCC2)=CC2=NCCc3c[nH]c1c32`, for which the Effect entry in assay [1] is “non specific”. The same molecule showed an IC50 in assay [2] of 380 nM.

Consider `NC1=CC2=NCCc3c[nH]c(c32)C1=O` [MAKALUVAMINE I], for which the Effect entry in assay [1] is listed as “non specific”. In assay [2], this molecule registered an IC50 of 250 nM.
